Converted amounts (≈) assume the structure as drawn.

For data set [1], the system named is Trichophyton mentagrophytes. The data set can be described thus: Disc-diffusion antifungal test. The following applies: for zone of inhibition at 10000 µg/mL: read-out: Zone diameters (mm).
A further data set can be described thus: physchem. Particulars: 66% aqueous dimethylformamide, pH 7.12.
The test system of another data set is Candida albicans. Nature of the data set: Disc-diffusion antifungal test. Particulars: 6-mm pads dipped in solutions of test compound. For orientation: Agar diffusion results depend on both activity and mobility in agar.
Another data set has as its system Histoplasma capsulatum. The data set can be described thus: microbe, parasite or virus in culture. In kind it is cell-based.
The next data set has as its system Blastomyces dermatitidis. Nature of the data set: Standard agar-dilution test. It is filed as cell-based.
The subject of a further data set is Neurospora crassa. Nature of the data set: Disc-diffusion antifungal test. Particulars: read-out: Zone diameters (mm).

`CCCCC/C=C\C/C=C\CCCCCCCC(=O)N[C@H]1C[C@@H](O)[C@@H](OC)NC(=O)[C@@H]2[C@@H](O)[C@@H](C)CN2C(=O)[C@H]([C@@H](C)O)NC(=O)[C@H]([C@H](O)[C@@H](O)c2ccc(O)cc2)NC(=O)[C@@H]2C[C@@H](O)CN2C(=O)[C@H]([C@@H](C)O)NC1=O`: the “MIC (mcg/disc)” value in data set [1] (disc-diffusion, 6-mm pads dipped in solutions of test compound) amounted to 0.078 mcg/disc; in the data set on Candida albicans, 1.25 mcg/disc. Besides, the pKa – broadly, the negative logarithm of the acid dissociation constant – in “physchem” is roughly 12.9. Further, the MIC in the data set on Histoplasma capsulatum and in the data set on Blastomyces dermatitidis was 100 µg/mL (≈ 93.1 µM) in each case.

For the compound `CCCCC/C=C\C/C=C\CCCCCCCC(=O)N[C@H]1C[C@@H](O)[C@@H](OCCCCCC)NC(=O)[C@@H]2[C@@H](O)[C@@H](C)CN2C(=O)[C@H]([C@@H](C)O)NC(=O)[C@H]([C@H](O)[C@@H](O)c2ccc(O)cc2)NC(=O)[C@@H]2C[C@@H](O)CN2C(=O)[C@H]([C@@H](C)O)NC1=O` [R = n-hexyl], the results for the zone of inhibition at 10000 µg/mL (in data set [1]; with Neurospora crassa) were 35 mm and 25 mm, respectively.

Consider `CCCCC/C=C\C/C=C\CCCCCCCC(=O)N[C@H]1C[C@@H](O)[C@@H](OCCC)NC(=O)[C@@H]2[C@@H](O)[C@@H](C)CN2C(=O)[C@H]([C@@H](C)O)NC(=O)[C@H]([C@H](O)[C@@H](O)c2ccc(O)cc2)NC(=O)[C@@H]2C[C@@H](O)CN2C(=O)[C@H]([C@@H](C)O)NC1=O` [R = n-propyl], for which the figures for the zone of inhibition at 10000 µg/mL (in data set [1]; with Neurospora crassa) were 35 mm and 20 mm, respectively.

The values above are taken from EP0021685A1.
